Test results as given in the NIST ThermoML archive (doi:10.1021/je050183a).

Columns and labels:
[1] = refractive index (Na D-line) (dimensionless); xn = mol fraction of the nth substance listed; settings: 298.15 K, 101 kPa, Liquid, Standard Abbe refractometry
[2] = xn = mol fraction of the nth substance listed; settings: 101 kPa, Liquid; for viscosity: Capillary tube (Ostwald / Ubbelohde) method; for speed of sound: Linear variable-path acoustic interferometer; for mass density: Pycnometric method

CC1OC(C)OC(C)O1 (stereo not drawn) [2,4,6-trimethyl-1,3,5-trioxane] + COC(=O)OC
[1]
Settings | refractive index
x1 = 0.0204 | 1.3673
x1 = 0.0409 | 1.3686
x1 = 0.059 | 1.3696
x1 = 0.0845 | 1.3711
x1 = 0.1091 | 1.3725
x1 = 0.2258 | 1.3786
x1 = 0.3012 | 1.382
x1 = 0.3994 | 1.386
x1 = 0.494 | 1.3894
x1 = 0.5906 | 1.3925
x1 = 0.696 | 1.3956
x1 = 0.808 | 1.3985
x1 = 0.9289 | 1.4014
x1 = 1 | 1.4029

[2]
Settings | mass density, 288.15 K [kg/m3] | mass density, 298.15 K [kg/m3] | speed of sound, 288.15 K [m/s] | speed of sound, 298.15 K [m/s] | viscosity, 288.15 K [mPa·s] | viscosity, 298.15 K [mPa·s]
x1 = 0.0204 | 1074.19 | 1060.99 | 1242.2 | 1197.4 | 0.66 | 0.59
x1 = 0.0409 | 1071.96 | 1058.89 | 1242.3 | 1197.3 | 0.673 | 0.6
x1 = 0.059 | 1070.03 | 1057.07 | 1242.4 | 1197.3 | 0.684 | 0.609
x1 = 0.0845 | 1067.35 | 1054.53 | 1242.4 | 1197 | 0.699 | 0.62
x1 = 0.1091 | 1064.81 | 1052.11 | 1242.3 | 1196.8 | 0.713 | 0.63
x1 = 0.2258 | 1053.37 | 1041.01 | 1240.4 | 1194.6 | 0.77 | 0.673
x1 = 0.3012 | 1046.5 | 1034.2 | 1238.4 | 1192.7 | 0.803 | 0.697
x1 = 0.3994 | 1038.14 | 1025.83 | 1235 | 1189.6 | 0.844 | 0.727
x1 = 0.494 | 1030.68 | 1018.35 | 1231.2 | 1186 | 0.887 | 0.757
x1 = 0.5906 | 1023.62 | 1011.31 | 1227.2 | 1182.3 | 0.936 | 0.793
x1 = 0.696 | 1016.52 | 1004.26 | 1223.1 | 1178.5 | 1.002 | 0.84
x1 = 0.808 | 1009.63 | 997.47 | 1219.3 | 1175.3 | 1.091 | 0.906
x1 = 0.9289 | 1002.87 | 991.2 | 1216.7 | 1173.1 | 1.214 | 0.998
x1 = 1 | 999.69 | 988.35 | 1217.7 | 1174.5 | 1.374 | 1.107
